# According to patent US20240261333A1, “NOVEL TARGETS FOR ENHANCING ANTI-TUMOR IMMUNITY” (THE BROAD INSTITUTE, INC., priority 2021, published 2024):
# Legend:
# [1] = tested on: ESO T cells co-cultured with A375 cells; test: IFNγ ELISA in culture media of the T cell cytotoxicity assay; assay type: cell-based, human; conditions: B3GNT2-overexpressing A375 pretreated with inhibitor, E:T ratio of 3; kifunensine having a stronger effect
# Procedure: Expanded T cells were thawed and maintained in culture media for 8-10 h before incubation with cancer cells. Cancer cells were seeded in 96-well plates and allowed to attach for 3-4 h before T cells were added at the appropriate effector to target cell (E:T) ratio. Paired controls with no T cells added were included for each condition. After 18 h, cancer cells were washed twice with PBS to remove T cells, passaged, and cultured for 2 days. Primary patient-derived cell models were not passaged after T cell co-culture. Viability was measured using CellTiter-Glo (Promega G7571). For each E:T ratio, percent survival was calculated as viability of the cells incubated with T cells divided by viability of the paired control that was not incubated with T cells. […]
# To challenge cells with cytokines, cells were incubated with Interferon-γ (IFNγ; Cell Signaling Technology 80385S), FasL (AdipoGen AG-40B-0130-3010), TRAIL (R&D Systems 375-TL-010), or TNF-α (AdipoGen AG-40B-0019-3010) for 24 h. […] Cell viability was measured using CellTiter-Glo (Promega G7571) and protein was harvested for Western blots. […] IFNγ in the cell culture media of the T cell cytotoxic assay was quantified using an ELISA kit (Thermo Fisher Scientific KHC4021). […]
# [2] = tested on: A375 (NY-ESO-1+, HLA-A2+) melanoma cells; test: T cell cytotoxicity assay (CellTiter-Glo), A375 against ESO T cells; assay type: cell-based, human; conditions: B3GNT2-overexpressing A375 pretreated with inhibitor, E:T ratio of 3, kifunensine having a stronger effect
# Procedure: Expanded T cells were thawed and maintained in culture media for 8-10 h before incubation with cancer cells. Cancer cells were seeded in 96-well plates and allowed to attach for 3-4 h before T cells were added at the appropriate effector to target cell (E:T) ratio. Paired controls with no T cells added were included for each condition. After 18 h, cancer cells were washed twice with PBS to remove T cells, passaged, and cultured for 2 days. Primary patient-derived cell models were not passaged after T cell co-culture. Viability was measured using CellTiter-Glo (Promega G7571). For each E:T ratio, percent survival was calculated as viability of the cells incubated with T cells divided by viability of the paired control that was not incubated with T cells. For example, CD274-overexpressing melanoma cells that were co-cultured with ESO T cells were compared to CD274-overexpressing melanoma cells that were cultured without T cells in parallel. As an alternative cytotoxicity assay, A375 cells stably expressing Gaussia luciferase were co-cultured with ESO T cells. At each time point, 10% of cell culture media was used for the Gaussia luciferase assay (Targeting Systems GAR-2B) to directly measure cytotoxicity.
# (§1) For glycosylation inhibition, cells were treated with 20 μg/mL Kifunensine (Cayman Chemical 10009437) or 2 mM Benzyl 2-acetamido-2-deoxy-alpha-D-galactopyranoside (BAG; Millipore Sigma B4894-100MG) for 48 h to inhibit N- and O-glycosylation respectively unless otherwise indicated. For MCL1 inhibition, cells were treated with 1-10 μM of S63845 (Selleck Chemicals S8383) or AZD5991 (Selleck Chemicals S8643) for 4 h before incubation with T cells. Both glycosylation and MCL1 inhibitors were maintained at indicated concentrations during co-culture with T cells.
# [3] = tested on: A375 cells overexpressing B3GNT2; test: Intra- and extra-cellular poly-LacNAc by tomato lectin staining, flow cytometry; assay type: cell-based, human; conditions: A375 overexpressing B3GNT2, pretreated with different concentrations of inhibitor
# Procedure: as §1
# Per condition, 5×10^5 cells were pelleted at 200×g for 5 min and washed once with PBS. Cell were fixed in 4% Formaldehyde in PBS at 4° C. for 10 mins. […] For each sample, 10,000 cells were analyzed on a CytoFLEX Flow Cytometer (Beckman Coulter) and quantified with FlowJo (FlowJo). For each experiment, median fluorescence values for 3 biological replicates were compared to determine statistical significance.
# [4] = tested on: A375 cells overexpressing B3GNT2; test: Binding of recombinant T cell proteins to A375 cells, flow cytometry; assay type: cell-based, human; conditions: B3GNT2-overexpressing A375 treated with inhibitor; CD2, 4-1BB, TREML2, NKG2D
# Procedure: as §1
# Per condition, 5×10^5 cells were pelleted at 200×g for 5 min and washed once with PBS. Cell were fixed in 4% Formaldehyde in PBS at 4° C. for 10 mins. Cells were washed twice with PBS and resuspended in PBS with 25 μg/mL recombinant Fc chimera proteins [PVRIG (R&D Systems 9365-PV-050), CD226 (R&D Systems 666-DN-050), NKG2D (R&D 1299-NK-050), TREML2 (R&D Systems 3259-TL-050), CD2 (R&D Systems 1856-CD-050), CD96 (R&D Systems 9360-CD-050), TIGIT (BPS Bioscience 71186), CD27 (BPS Bioscience 71176), or 4-1BB (TNFRSF9; Sino Bio 10041-H03H)], 0.1 μg/mL HLA-A2:NY-ESO-1 Fab (Stewart-Jones et al., 2009), 5 μg/mL Fas antibody (Millipore Sigma 05-201), 25 μg/mL TNFRSF10B antibody (Novus Biologicals NB100-56618, 1:200), or Dylight 649 labeled Tomato Lectin (Vector Laboratories DL-1178, 1:100). Cells were incubated at 4° C. for 1 h. Cells were washed twice with PBS and resuspended in PBS with the appropriate secondary antibody [IgG Fc PE (Thermo Fisher Scientific 12-4998-82, 1:50), His Tag Alexa Fluor 647 (Thermo Fisher Scientific MA121315A647), mouse Alexa Fluor 568 (Thermo Fisher Scientific A-11031), or rabbit Alexa Fluor 647 (Thermo Fisher Scientific A-21244)]. Cells stained with Tomato Lectin were not incubated with additional secondary antibodies. […] For each sample, 10,000 cells were analyzed on a CytoFLEX Flow Cytometer (Beckman Coulter) and quantified with FlowJo (FlowJo). For each experiment, median fluorescence values for 3 biological replicates were compared to determine statistical significance.
# N-glycan synthesis = conditions: cited from earlier work
Compound,T cell IFNγ secretion [1],Cell survival against T cell cytotoxicity [2],poly-LacNAc measured by tomato lectin staining [3],Binding of recombinant T cell proteins to A375 cells [4],Inhibition of N-glycan synthesis (N-glycan synthesis)
"CC(=O)N[C@H]1[C@@H](OCc2ccccc2)O[C@H](CO)[C@H](O)[C@@H]1O [BAG, benzyl-2-acetamido-2-deoxy-α-D-galactopyranoside]",increased T cell IFNγ secretion,reduced A375 survival,reduced poly-LacNAc added by B3GNT2 in a dosage-dependent manner,rescued the reduction in T cell protein binding,–
tunicamycin,–,–,–,–,potent inhibitor of N-glycan synthesis
